Results from patent US9394266B2, “Solid state forms of cabazitaxel and processes for preparation thereof” (IVAX International GmbH, priority 2012, dated 2016).

Test: Hygroscopicity test: exposure to controlled relative humidity, XRPD and Karl-Fischer water content before and after
Format: physicochemical
Conditions: about room temperature; for conversion to another solid state form of Cabazitaxel (polymorphic stability): normal atmospheric humidity, 60%, 80% and 100% RH, two days exposure; for hygroscopicity: various relative humidity conditions
Procedure: Hygroscopicity Test Procedure:
About 150 mg of a sample was placed to a cell with controlled relative humidity. The samples were exposed to 60%, 80% and 100% relative humidity for a period of two days. XRPD analysis and water content by coulometric Karl-Fischer titration were carried out before and after the exposure to the defined relative humidity. Coulometric Karl-Fischer Titration: Water was determined by KF Oven method (832 KF Thermoprep connected to 831 KF Coulometer). Water from the sample (50 mg of cabazitaxel) was released by nitrogen stream at 130° C. Extraction time was 10 minutes.

Row | SMILES | conversion to another solid state form of Cabazitaxel (polymorphic stability) | hygroscopicity
1 | CO[C@H]1C(=O)[C@]2(C)[C@@H](OC)C[C@H]3OC[C@@]3(OC(C)=O)[C@H]2[C@H](OC(=O)c2ccccc2)[C@]2(O)C[C@H](OC(=O)[C@H](O)[C@@H](NC(=O)OC(C)(C)C)c3ccccc3)C(C)=C1C2(C)C [Form VII, Cabazitaxel ethyl acetate solvate] | does not convert to any other form of Cabazitaxel | low-hygroscopicity form
2 | CO[C@H]1C(=O)[C@]2(C)[C@@H](OC)C[C@H]3OC[C@@]3(OC(C)=O)[C@H]2[C@H](OC(=O)c2ccccc2)[C@]2(O)C[C@H](OC(=O)[C@H](O)[C@@H](NC(=O)OC(C)(C)C)c3ccccc3)C(C)=C1C2(C)C [Form X, Cabazitaxel methyl isobutyl ketone solvate] | does not convert to any other forms of Cabazitaxel | low-hygroscopicity form
3 | CO[C@H]1C(=O)[C@]2(C)[C@@H](OC)C[C@H]3OC[C@@]3(OC(C)=O)[C@H]2[C@H](OC(=O)c2ccccc2)[C@]2(O)C[C@H](OC(=O)[C@H](O)[C@@H](NC(=O)OC(C)(C)C)c3ccccc3)C(C)=C1C2(C)C [acetone solvate, Cabazitaxel acetone solvate, reference compound] | already transform to the anhydrous form B after two days | –
